# Test results from US20020058683A1, “Oral combination of lufenuron and nitenpyram against fleas” (priority 1998, published 2002).
# Tests used:
# [1] = system: Cat flea Ctenocephalides felis; test: Example B1: activity against fleas on dogs in a contaminated environment, oral tablets; type: in vivo
# Description: Comparison Between the Activity of Lufenuron Alone and the Combination of Nitenpyran and Lufenuron Against Dog Fleas in a Contaminated Environment Corresponding to Actual Conditions.
# In the study, conditions existing in the household were simulated. To this end, 4 isolated and clinically clean rooms were used. They contained a sleeping area laid out with straw and a small run to the outside. The rooms were subjected to natural light conditions. […] Subsequently, each group of dogs underwent different treatment.
# Control group 1 was given no active ingredient, but only a placebo and served as the reference group. Group 2 was given lufenuron in a monthly dosage in accordance with the instructions on the packet and once a week was given a placebo. Group 3 was given lufenuron in a monthly dosage in accordance with the instructions on the packet, and once a week was additionally given nitenpyram for a period of 6 weeks. Group 4 was given lufenuron in a monthly dosage in accordance with the instructions on the packet, and twice a week was additionally given nitenpyram for a period of 6 weeks.
# In all four groups, the flea population was determined by counting them twice weekly before the first treatment and once weekly during treatment.
# The activity of the test substances was determined under simulated household conditions in accordance with the following formula: [formula]
# fleas = settings: in vitro test, cited from earlier work
# [2] = system: fleas present on the cats; settings: cited from earlier work
Compound,time within which all the fleas except one died ([1]; after the first administration of nitenpyram) [days],activity (fleas; after 24 hours) [%],"time to first, substantial activity (fleas; after feeding contaminated blood to fleas) [min]",activity against the fleas present on the cats ([2]; 6 hours after oral administration to cats) [%],"activity against fleas ([2]; cats, oral, on the second day after renewed infestation) [%]","Activity (% relative to control) ([1]; days 0-28 after first treatment, monthly lufenuron only (Group 2)) [%]","Activity (% relative to control) ([1]; days 29-56, monthly lufenuron only (Group 2)) [%]","Activity (% relative to control) ([1]; days 57-84, monthly lufenuron only (Group 2)) [%]","Activity (% relative to control) ([1]; days 85-112, monthly lufenuron only (Group 2)) [%]","time until activity achieved a satisfactory level for practical usage ([1]; group 2, treated solely with lufenuron)"
"CCN(Cc1ccc(Cl)nc1)/C(=C/[N+](=O)[O-])NC [nitenpyram, (E)-N-(6-chloro-pyridin-3-ylmethyl)-N-ethyl-N′-methyl-2-nitrovinylidenediamine]",16 to 24,100,30,60,55,–,–,–,–,–
"O=C(NC(=O)c1c(F)cccc1F)Nc1cc(Cl)c(OC(F)(F)C(F)C(F)(F)F)cc1Cl (racemic) [lufenuron, (R,S)-1-[2,5-dichloro-4-(1,1,2,2,3,3,3-hexafluoropropoxy)-phenyl]-3-(2,6-difluorobenzoyl)urea]",–,–,–,–,–,25.4,78.6,72.1,94.3,ca. 84 days
